Measured values from ChEMBL document CHEMBL1201862, “PubChem BioAssay data set” (2004).
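In this assay, cells in 96-well plates receive the compound at five concentrations for 48 hours. Endpoints are linearly interpolated between the surrounding concentrations. The concentration for 50% growth inhibition is given as GI50.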 Calls of active or inactive are those of the source. No stated cut-off is given here; in the data, active = GI50 up to about 1.1 µM and inactive = higher.

What was measured:
Test in all cases: NCI anticancer screen, dose series, 48 h
NCI-H460 = tested on: NCI-H460
SF-295 = tested on: SF-295
TK-10 = tested on: TK-10
U-251 = tested on: U-251
SK-OV-3 = tested on: SK-OV-3
UACC-257 = tested on: UACC-257
PC-3 = tested on: PC-3
HL-60 = tested on: HL-60
SF-539 = tested on: SF-539
IGROV-1 = tested on: IGROV-1
HCT-116 = tested on: HCT-116
OVCAR-8 = tested on: OVCAR-8
A549 = tested on: A549
OVCAR-4 = tested on: OVCAR-4
SNB-19 = tested on: SNB-19
Hs-578T = tested on: Hs-578T
SK-MEL-5 = tested on: SK-MEL-5
SR = tested on: SR
SF-268 = tested on: SF-268
MDA-MB-435 = tested on: MDA-MB-435
DU-145 = tested on: DU-145
SW-620 = tested on: SW-620
OVCAR-5 = tested on: OVCAR-5
T47D = tested on: T47D
Malme-3M = tested on: Malme-3M
EKVX = tested on: EKVX
M14 = tested on: M14
HCT-15 = tested on: HCT-15
LOX IMVI = tested on: LOX IMVI
CAKI-1 = tested on: CAKI-1
SN12C = tested on: SN12C
HOP-62 = tested on: HOP-62
COLO 205 = tested on: COLO 205
OVCAR-3 = tested on: OVCAR-3
KM12 = tested on: KM12
NCI-H23 = tested on: NCI-H23
NCI/ADR-RES = tested on: NCI/ADR-RES
RXF 393 = tested on: RXF 393
HT-29 = tested on: HT-29
ACHN = tested on: ACHN
K562 = tested on: K562
SK-MEL-28 = tested on: SK-MEL-28
UO-31 = tested on: UO-31
MDA-N = tested on: MDA-N
UACC-62 = tested on: UACC-62
MCF7 = tested on: MCF7
CCRF-CEM = tested on: CCRF-CEM
SNB-75 = tested on: SNB-75
MOLT-4 = tested on: MOLT-4
MDA-MB-231 = tested on: MDA-MB-231
BT-549 = tested on: BT-549
RPMI-8226 = tested on: RPMI-8226
NCI-H226 = tested on: NCI-H226
NCI-H522 = tested on: NCI-H522
SK-MEL-2 = tested on: SK-MEL-2
786-0 = tested on: 786-0

## CCSc1nc(N)c2c(-c3ccc(OC)c(OC)c3)c3c(nc2n1)CCCC3
NCI-H460
  GI50: > 100 µM (inactive)
SF-295
  GI50: > 100 µM (inactive)
TK-10
  GI50: > 100 µM (inactive)
U-251
  GI50: > 100 µM (inactive)
SK-OV-3
  GI50: > 100 µM (inactive)
UACC-257
  GI50: > 100 µM (inactive)
PC-3
  GI50: > 100 µM (inactive)
HL-60
  GI50: > 100 µM (inactive)
SF-539
  GI50: > 100 µM (inactive)
IGROV-1
  GI50: > 100 µM (inactive)
HCT-116
  GI50: > 100 µM (inactive)
OVCAR-8
  GI50: > 100 µM (inactive)
A549
  GI50: > 100 µM (inactive)
OVCAR-4
  GI50: > 100 µM (inactive)
SNB-19
  GI50: > 100 µM (inactive)
Hs-578T
  GI50: > 100 µM (inactive)
SK-MEL-5
  GI50: > 100 µM (inactive)
SR
  GI50: > 100 µM (inactive)
SF-268
  GI50: > 100 µM (inactive)
MDA-MB-435
  GI50: > 100 µM (inactive)
DU-145
  GI50: > 100 µM (inactive)
SW-620
  GI50: > 100 µM (inactive)
OVCAR-5
  GI50: > 100 µM (inactive)
T47D
  GI50: > 100 µM (inactive)
Malme-3M
  GI50: > 100 µM (inactive)
EKVX
  GI50: > 100 µM (inactive)
M14
  GI50: > 100 µM (inactive)
HCT-15
  GI50: > 100 µM
LOX IMVI
  GI50: > 100 µM (inactive)
CAKI-1
  GI50: > 100 µM (inactive)
SN12C
  GI50: > 100 µM (inactive)
HOP-62
  GI50: > 100 µM (inactive)
COLO 205
  GI50: > 100 µM (inactive)
OVCAR-3
  GI50: > 100 µM (inactive)
KM12
  GI50: > 100 µM (inactive)
NCI-H23
  GI50: > 100 µM (inactive)
NCI/ADR-RES
  GI50: > 100 µM (inactive)
RXF 393
  GI50: > 100 µM (inactive)
HT-29
  GI50: > 100 µM (inactive)
ACHN
  GI50: > 100 µM (inactive)
K562
  GI50: > 100 µM (inactive)
SK-MEL-28
  GI50: > 100 µM (inactive)
UO-31
  GI50: > 100 µM (inactive)
MDA-N
  GI50: > 100 µM (inactive)
UACC-62
  GI50: > 100 µM (inactive)
MCF7
  GI50: > 100 µM (inactive)
CCRF-CEM
  GI50: > 100 µM (inactive)
SNB-75
  GI50: 58.2 µM (inactive)
MOLT-4
  GI50: > 100 µM (inactive)
MDA-MB-231
  GI50: > 100 µM (inactive)
BT-549
  GI50: > 100 µM (inactive)
RPMI-8226
  GI50: > 100 µM (inactive)

## N=c1oc2cc(O)ccc2cc1C(=O)NCc1ccccc1
NCI-H460
  GI50: 25.8 µM (inactive)
SF-295
  GI50: 35.2 µM (inactive)
TK-10
  GI50: 32.1 µM (inactive)
U-251
  GI50: 18.7 µM (inactive)
SK-OV-3
  GI50: 16.2 µM (inactive)
UACC-257
  GI50: 44.7 µM (inactive)
PC-3
  GI50: 28.4 µM (inactive)
SF-539
  GI50: 21.9 µM (inactive)
IGROV-1
  GI50: 21.3 µM (inactive)
HCT-116
  GI50: 22.2 µM (inactive)
OVCAR-8
  GI50: 27.4 µM (inactive)
A549
  GI50: 31.8 µM (inactive)
OVCAR-4
  GI50: 31.6 µM (inactive)
SNB-19
  GI50: 23.7 µM (inactive)
Hs-578T
  GI50: 15.3 µM (inactive)
SK-MEL-5
  GI50: 12.9 µM (inactive)
SR
  GI50: 11.9 µM (inactive)
SF-268
  GI50: 23.1 µM (inactive)
MDA-MB-435
  GI50: 17.7 µM (inactive)
DU-145
  GI50: 16.6 µM (inactive)
SW-620
  GI50: 22.6 µM (inactive)
OVCAR-5
  GI50: 53.7 µM (inactive)
T47D
  GI50: 8.61 µM (inactive)
Malme-3M
  GI50: 21.7 µM (inactive)
EKVX
  GI50: 32.8 µM (inactive)
M14
  GI50: 34.7 µM (inactive)
HCT-15
  GI50: 27.2 µM
NCI-H226
  GI50: 32.8 µM (inactive)
LOX IMVI
  GI50: 29.5 µM (inactive)
NCI-H522
  GI50: 16.3 µM (inactive)
CAKI-1
  GI50: 20.3 µM (inactive)
SN12C
  GI50: 19.5 µM (inactive)
HOP-62
  GI50: 31.1 µM (inactive)
COLO 205
  GI50: 12.4 µM (inactive)
OVCAR-3
  GI50: 22.6 µM (inactive)
KM12
  GI50: 32.3 µM (inactive)
NCI-H23
  GI50: 19.5 µM (inactive)
NCI/ADR-RES
  GI50: 19.7 µM (inactive)
RXF 393
  GI50: 19.5 µM (inactive)
HT-29
  GI50: 18.8 µM (inactive)
ACHN
  GI50: 14.5 µM (inactive)
K562
  GI50: 10.3 µM (inactive)
SK-MEL-2
  GI50: 14.4 µM (inactive)
SK-MEL-28
  GI50: 27.6 µM (inactive)
UO-31
  GI50: 25.6 µM (inactive)
MDA-N
  GI50: 19.3 µM (inactive)
MCF7
  GI50: 33.2 µM (inactive)
CCRF-CEM
  GI50: 9.42 µM (inactive)
SNB-75
  GI50: 8.85 µM (inactive)
MOLT-4
  GI50: 15.7 µM (inactive)
MDA-MB-231
  GI50: 24 µM (inactive)
786-0
  GI50: 32.1 µM (inactive)
BT-549
  GI50: 17.3 µM (inactive)
RPMI-8226
  GI50: 10.7 µM (inactive)
